Measured values reported in patent US20240238247A1, “METHOD OF TREATING EXPRESSIVE LANGUAGE DEFICIT IN AUTISTIC HUMANS” (AMS Therapeutics, priority 2022, published 2024).
“Also recorded” adds a separate entry of the source.

Experiments:
Type in all cases: in vivo
[1] = test system: autistic human patients with expressive language deficit; experiment: Expressive language (verbal output) graded on 7-point scale (0-6) in autistic patients treated with ethosuximide (ETS); details: for mean expressive language score after six months (Rx): FIG. 1; for Improvement Over Baseline, Expressive language: after six months of ETS therapy; for mean improvement in expressive language score: normal IQ patients (N=8) treated more than one month, 7-point scale of Table 1
Procedure: To assess the effectiveness of ethosuximide as a pharmacological treatment for expressive language deficit, 24 human patients were treated with ethosuximide (ETS) for at least one month, more preferably six months or longer, and their language, social, and behavioral skills were monitored throughout the course of treatment, typically every 1-3 months. Study participants (subjects) were divided into four treatment groups based on neurodevelopmental level (mental status): normal IQ (NIQ), borderline IQ (BIQ), mild mental retardation (mMR), and moderate mental retardation (moMR). Language skills (expressiveness, receptivity), social behavior (social interaction, eye contact, participation), and mood (affect, irritability, agitation) were evaluated at various points in time. Verbal output was graded using a 7-point scale (0-6), where 0=nonverbal, 1=echolalic (the patient can respond by echoing the speaker), 2=single words (the patient can respond in single words), 3=phrases (the patient can respond in a simple phrase), 4=sentences (the patient can respond in a full sentence), 5=spontaneous speech (the patient can speak spontaneously), and 6=mutual speech (the patient can have a true conversation with another person). [table] To evaluate drug efficacy and onset of action, each patient was monitored for changes in language, social behavior, and mood at various times after commencement of ETS therapy. Performance characteristics observed for each function (expressive language, mood, behavior) are summarized in Table 6, at t=1 month after commencement of treatment and t=3 months after commencement of treatment.

autistic human patients [2] = experiment: Social behavior graded on 7-point scale (-3 to +3 vs baseline), based on Aberrant Behavior Checklist, in autistic patients treated with ETS; details: for Improvement Over Baseline, Social behavior: after six months of ETS therapy
Procedure: (§1) To assess the effectiveness of ethosuximide as a pharmacological treatment for expressive language deficit, 24 human patients were treated with ethosuximide (ETS) for at least one month, more preferably six months or longer, and their language, social, and behavioral skills were monitored throughout the course of treatment, typically every 1-3 months. Study participants (subjects) were divided into four treatment groups based on neurodevelopmental level (mental status): normal IQ (NIQ), borderline IQ (BIQ), mild mental retardation (mMR), and moderate mental retardation (moMR). Language skills (expressiveness, receptivity), social behavior (social interaction, eye contact, participation), and mood (affect, irritability, agitation) were evaluated at various points in time. Verbal output was graded using a 7-point scale (0-6), where 0=nonverbal, 1=echolalic (the patient can respond by echoing the speaker), 2=single words (the patient can respond in single words), 3=phrases (the patient can respond in a simple phrase), 4=sentences (the patient can respond in a full sentence), 5=spontaneous speech (the patient can speak spontaneously), and 6=mutual speech (the patient can have a true conversation with another person). Social behavior and mood symptoms, based on those described in the Aberrant Behavior Checklist, an established behavioral rating system used in evaluating patients with intellectual disabilities (see Aman, M. G., et al., “The Aberrant Behavior Checklist: A behavior rating scale for the assessment of treatment effects,” American Journal of Mental Deficiency, 89(5):485-491 (1985), incorporated by reference herein), were also graded on a 7-point scale (0±3). […] Social behavior and mood data are presented below in Table 8. To evaluate drug efficacy and onset of action, each patient was monitored for changes in language, social behavior, and mood at various times after commencement of ETS therapy. Performance characteristics observed for each function (expressive language, mood, behavior) are summarized in Table 6, at t=1 month after commencement of treatment and t=3 months after commencement of treatment.

autistic human patients [3] = experiment: Mood graded on 7-point scale (-3 to +3 vs baseline), based on Aberrant Behavior Checklist, in autistic patients treated with ETS; details: for Improvement Over Baseline, Mood: after six months of ETS therapy
Procedure: as §1

autistic human patients [4] = experiment: Tolerability / side effects of ETS treatment in the study patients
Source text: Common side effects reported in the literature for patients receiving ethosuximide treatment for childhood absence epilepsy include abdominal distress, diarrhea, weight loss, hyperactivity, lethargy, leukopenia, and depression. Very few of these symptoms were reported or observed in the patients participating in the study herein described. Eleven patients stopped ETS treatment after 6 months or less. Five of these patients dropped out for non-medical reasons.

[5] = normal IQ patients, Aberrant Behavior Checklist methodology

CCC1(C)CC(=O)NC1=O (centres unmarked) [ETS, 2-ethyl-2-methylsuccinimide]
mean expressive language score after six months (Rx) ([1]; BIQ group, N=4, baseline 1.7, 0-6 scale): 2.75
Improvement Over Baseline, Expressive language ([1]; BIQ): +1.0
mean expressive language score after six months (Rx) ([1]; NIQ group, N=8, baseline 2.5, 0-6 scale): 4.4
Improvement Over Baseline, Expressive language ([1]; NIQ): +2.0
expressive language score ([1]; Patient A, after 3 months, baseline score 2 (single words)): 3
expressive language, observation ([1]; Patient A, at 6-9 months): responding in full sentences
expressive language, observation ([1]; Patient A, at 9-12 months): speak spontaneously and even ask questions
Language development ([1]; Patient A, baseline SW, 1 mo.): Increased
Language development (expressive language class) ([1]; Patient A, baseline SW, 3 mo.): PH (Phrases)
Language development (expressive language class) ([1]; Patient A, baseline SW, 6 mo.): SN/SP
Language development (expressive language class) ([1]; Patient A, baseline SW, 9 mo.): SN/SP
Language development (expressive language class) ([1]; Patient A, baseline SW, 12 mo.): SN/SP/MU
expressive language, observation ([1]; Patient A, one month after onset of ETS treatment, baseline score 2): saying more words
Language development (4-word PH) ([1]; Patient B, baseline EC/2-word PH, 3 mo.): 4-word
Language development (expressive language class) ([1]; Patient B, baseline EC/2-word PH, 6 mo.): SN (Sentences)
Language development (expressive language class) ([1]; Patient B, baseline EC/2-word PH, 9 mo.): SN/SP
expressive language, observation ([1]; Patient B, by month 6): speak in sentences
expressive language, observation ([1]; Patient B, by month 9): converse spontaneously at times
expressive language, observation ([1]; Patient B, three months after onset of treatment, echolalic, some two-word phrases before): 3 and 4-word phrases
expressive language skills during treatment ([1]; Patient C, autistic child, 6 months of ETS, FIG. 3): steadily improved
expressive language, observation ([1]; Patients A and B (normal IQ), by 9 months from commencement of treatment, FIG. 2): some spontaneous speech
language skills after ETS treatment was stopped ([1]; Patients C (stopped at 6 months) and D (stopped at 9 months), evaluated several months later, FIG. 3): continued to improve
Expressive language: increased word count (talking more), score change ([1]; after 1 month of treatment): count (+1)
Expressive language, observed performance ([1]; after 3 months of treatment): 2-word phrases and Listening better and makes wants clearer
effect on expressive language skills ([1]; both epileptic (7 of 24) and non-epileptic patients): improved
mean expressive language score after six months (Rx) ([1]; mMR group, N=6, baseline 1.3, 0-6 scale): 2.5
Improvement Over Baseline, Expressive language ([1]; mMR): +1.2
mean expressive language score after six months (Rx) ([1]; moMR group, N=2, baseline 0.5, 0-6 scale): 1.0
Improvement Over Baseline, Expressive language ([1]; moMR): +0.5
mean improvement in expressive language score [1]: 1.9 points
mean improvement in expressive language score ([1]; listed as ethosuximide): about 2 points
improvements in expressive language and social skills ([1]; one month after commencing daily treatment): evident
retention of language gains after discontinuation ([1]; patients who discontinued treatment (after six months)): did not lose their language gains
Improvement Over Baseline, Social behavior (autistic human patients [2]; BIQ): +1.5
Improvement Over Baseline, Social behavior (autistic human patients [2]; NIQ): +2.0
Social behavior, observed performance (autistic human patients [2]; after 1 month of treatment): More engaged
Social behavior: increased eye contact, score change (autistic human patients [2]; after 1 month of treatment): contact (+1)
Social behavior, observed performance (autistic human patients [2]; after 3 months of treatment): Sits in groups
Improvement Over Baseline, Social behavior (autistic human patients [2]; mMR): +1.0
Improvement Over Baseline, Social behavior (autistic human patients [2]; moMR): +1.0
gain in social behavior (autistic human patients [2]; [5]): +2 points
Improvement Over Baseline, Mood (autistic human patients [3]; BIQ): +1.4
Improvement Over Baseline, Mood (autistic human patients [3]; NIQ): +1.2
Mood / focus observation (autistic human patients [3]; Patient B, 3 months after onset of treatment): more focused and calmer; also recorded: focused; also recorded: calmer
Mood: calmer, score change (autistic human patients [3]; after 1 month of treatment): Calmer (+1)
Mood: more focused, score change (autistic human patients [3]; after 1 month of treatment): More focused (+1)
Mood, observed performance (autistic human patients [3]; after 3 months of treatment): Fewer tantrums
Improvement Over Baseline, Mood (autistic human patients [3]; mMR): +1.0
Improvement Over Baseline, Mood (autistic human patients [3]; moMR): 0.0
Improvement Over Baseline, Mood (autistic human patients [3]; moMR, listed as ethosuximide): no change
gain in mood (autistic human patients [3]; [5]): +1.2 points
tolerability (autistic human patients [4]; all ages evaluated (3-24 years), 150-1000 mg b.i.d.): well tolerated
literature side effects (abdominal distress, diarrhea, weight loss, hyperactivity, lethargy, leukopenia, depression) reported or observed (autistic human patients [4]; patients participating in the study): Very few
